Test results: patent publication US7855297B2, “Amide derivatives and medicinal use thereof” (Mitsubishi Tanabe Pharma Corporation, priority 2000, dated 2010)

Assays:
C5a receptor = molecular target: T1, C5a receptor (Homo sapiens, UniProt P21730); assay: C5a receptor binding assay ([125I]-human C5a, dcAMP-U937 cells); conditions: [125I]-C5a 200 pM, 4° C., 2 hr, read-out: IC50 value, concentration at which binding of [125I]-human C5a is inhibited by 50%
T1 construct: U-937 cell was stimulated with 1 mM dibutyryl cyclic AMP (dcAMP, SIGMA) for 2 days to express the C5a receptor; endogenous in cells; host or cells: U-937 cells (human histiocytic lymphoma) differentiated with 1 mM dibutyryl cAMP for 2 days; whole cells, stored frozen and thawed before use
T1 sequence (P21730 1-350): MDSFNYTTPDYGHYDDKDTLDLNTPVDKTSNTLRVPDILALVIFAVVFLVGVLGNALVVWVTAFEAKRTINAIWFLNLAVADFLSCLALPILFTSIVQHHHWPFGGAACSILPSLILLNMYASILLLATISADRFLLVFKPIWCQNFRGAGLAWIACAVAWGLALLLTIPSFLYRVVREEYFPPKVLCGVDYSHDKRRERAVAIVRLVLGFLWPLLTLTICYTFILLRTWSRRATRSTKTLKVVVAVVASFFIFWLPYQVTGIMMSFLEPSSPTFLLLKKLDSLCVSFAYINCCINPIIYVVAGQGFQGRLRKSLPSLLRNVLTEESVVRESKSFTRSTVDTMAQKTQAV
Method: The C5a receptor binding inhibitory action of C5a and the test compound was evaluated by a receptor binding assay comprising reacting human cell line U-937 (human histiocytic lymphoma line), which expresses the C5a receptor, with [^125I]-human C5a (Amersham Pharmacia Biotech) in a MultiScreen (MILLIPORE). First, U-937 cell was stimulated with 1 mM dibutyryl cyclic AMP (dcAMP, SIGMA) for 2 days to express the C5a receptor (dcAMP-U937 cell), and suspended in a binding buffer [50 mM HEPES, 1 mM CaCl2, 5 mM MgCl2, 0.5% bovine albumin (BSA, SIGMA), 0.02% NaN3 (pH 7.2)] and stored at −80° C. […] After drying the MultiScreen, the radioactivity on the filter was measured using a gamma counter.
The rate (% inhibition) of inhibition of C5a binding by the test compound was calculated by the following formula using the count value obtained without addition of the test compound as Total, the count value obtained with addition of non-labeled C5a as Non, and the count value obtained with addition of the test compound as Test. % Inhibition=100−[(Test-Non)/(Total-Non)]×100 […]

[1] = system: C5a stimulated neutrophil; assay: Increase of intracellular Ca2+ concentration of C5a stimulated neutrophil; format: cell-based; conditions: human neutrophils
Method: A neutrophil fraction was separately taken from human peripheral venous blood using Lympholyte-poly (Cedarlane), and suspended in Hank's Balanced Salt Solution (HBSS, GIBCO BRL) supplemented with 1% fetal bovine serum (FBS). Then, Fura 2-AM (final concentration 5 μM, DOJINDO) was added to the neutrophil fraction (5×10^6 cells/mL), and the mixture was incubated at 37° C. for 40 min. The cells were washed by centrifugation and suspended to the concentration of 1×10^6 cells/mL. The intracellular Ca^2+ concentration was measured using a spectrophotofluorometer (CAF-110, JASCO Corporation), and calculated from the ratio (Ex340 value/Ex380 value) of fluorescent intensities at 500 nm upon excitation at 340 nm and 380 nm, the former being Ex340 value, the latter being Ex380 value. […] Then, Triton X-100 (final concentration 0.2%) was added and the cells were dissolved, and sb2 value, which was the […] then, and Rmax value, which was the Ex340 value/Ex380 value then, was measured. Then, EGTA (final concentration 3 mmol/L) was added and sf2 value, which was the […] then, and Rmin value, which was the Ex340/Ex380 value then, was measured. From these measurement results, the intracellular Ca^2+ concentration was calculated from the following formula. […]

IC50 (C5a receptor): 104 nM
IC50 ([1]; recombinant human C5a 100 pmol/L, read-out: IC50 value, concentration at which increase in intracellular Ca2+ concentration of C5a-stimulated neutrophil is inhibited by 50%): 5 nM
melting point: 121 °C
SMILES: CC(C)c1ccc(N(Cc2ccc(N(C)C)cc2)C(=O)C2CCCc3ccccc32)cc1 (stereo not shown) [Example 4, N-[(4-dimethylaminophenyl)methyl]-N-(4-isopropylphenyl)-1,2,3,4-tetrahydronaphthalene-1-carboxamide]
agonistic action (increase in intracellular Ca2+ by the compound alone) ([1]; compound 3 μmol/L): did not induce an increase in intracellular Ca^2+ and the agonistic action was not found
